Assay results from EP4722212A1, “NOVEL COMPOUND FOR INHIBITING PROTEIN KINASES AND PHARMACEUTICAL COMPOSITION COMPRISING SAME” (Magicbullettherapeutics Co., Ltd., priority 2023, dated 2024).
Where two headings read alike, the source gives them in different places.

Columns and labels:
Assay in all cases: Kinase panel
Assay type in all cases: biochemical
MEKK6 = MEKK6 (Homo sapiens, UniProt O95382); settings: MEKK6, 1 µM; read-out: residual enzyme activity
In short: (§1)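 Values report residual kinase activity remaining after treatment with 1 µM compound in a biochemical panel assay. Enzymes retaining 40% or less of their activity, equivalent to at least 60% inhibition, were listed.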

MSSK1/STK23 = MSSK1/STK23 (Homo sapiens, UniProt Q9UPE1); settings: MSSK1/STK23, 1 µM; read-out: residual enzyme activity
In short: as §1

PKCTHETA = PKCTHETA (Homo sapiens, UniProt Q04759); settings: read-out: residual enzyme activity
Chain of PKCTHETA (Q04759 whole entry): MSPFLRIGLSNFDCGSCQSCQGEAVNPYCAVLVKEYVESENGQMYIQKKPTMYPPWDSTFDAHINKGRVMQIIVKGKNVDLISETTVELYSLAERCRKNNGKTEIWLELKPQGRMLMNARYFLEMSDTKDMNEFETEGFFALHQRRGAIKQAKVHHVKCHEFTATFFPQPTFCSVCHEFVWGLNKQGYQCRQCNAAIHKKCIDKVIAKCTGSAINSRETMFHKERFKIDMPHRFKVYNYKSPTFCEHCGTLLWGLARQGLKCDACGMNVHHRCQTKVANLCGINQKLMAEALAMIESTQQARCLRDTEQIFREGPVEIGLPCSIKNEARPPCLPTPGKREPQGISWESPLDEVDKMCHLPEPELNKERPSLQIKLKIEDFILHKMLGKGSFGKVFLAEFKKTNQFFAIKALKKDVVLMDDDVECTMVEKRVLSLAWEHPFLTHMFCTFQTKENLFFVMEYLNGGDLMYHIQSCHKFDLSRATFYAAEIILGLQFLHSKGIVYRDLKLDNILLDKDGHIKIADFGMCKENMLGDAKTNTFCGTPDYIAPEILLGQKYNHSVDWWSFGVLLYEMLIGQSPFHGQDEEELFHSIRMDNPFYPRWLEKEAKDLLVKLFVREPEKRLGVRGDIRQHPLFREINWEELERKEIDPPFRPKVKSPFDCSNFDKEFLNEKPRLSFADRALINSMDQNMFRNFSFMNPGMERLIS
In short: as §1

CDK2/CYCLIN E2 = CDK2/CYCLIN E2 (Homo sapiens, UniProt P24941); settings: CDK2/cyclin E2, 1 µM; read-out: residual enzyme activity
In short: as §1

IRAK4 = IRAK4 (Homo sapiens, UniProt Q9NWZ3); settings: IRAK4, 1 µM; read-out: residual enzyme activity
In short: as §1

HGK/MAP4K4 = HGK/MAP4K4 (Homo sapiens, UniProt O95819); settings: HGK/MAP4K4, 1 µM; read-out: residual enzyme activity
In short: as §1

NEK4 = NEK4 (Homo sapiens, UniProt P51957); settings: NEK4, 1 µM; read-out: residual enzyme activity
In short: as §1

GRK4 = GRK4 (Homo sapiens, UniProt P32298); settings: GRK4, 1 µM; read-out: residual enzyme activity
In short: as §1

EPHA6 = EPHA6 (Homo sapiens, UniProt Q9UF33); settings: EPHA6, 1 µM; read-out: residual enzyme activity
In short: as §1

DMPK = DMPK (Homo sapiens, UniProt Q09013); settings: read-out: residual enzyme activity
In short: as §1

MUSK = MUSK (Homo sapiens, UniProt O15146); settings: read-out: residual enzyme activity
In short: as §1

ROCK2 = ROCK2 (Homo sapiens, UniProt O75116); settings: ROCK2, 1 µM; read-out: residual enzyme activity
In short: as §1

JAK2 = JAK2 (Homo sapiens, UniProt O60674); settings: JAK2, 1 µM; read-out: residual enzyme activity
In short: as §1

FER = FER (Homo sapiens, UniProt P16591); settings: read-out: residual enzyme activity
In short: as §1

P38G = P38G (Homo sapiens, UniProt P53778); settings: read-out: residual enzyme activity
Chain of P38G (P53778 whole entry): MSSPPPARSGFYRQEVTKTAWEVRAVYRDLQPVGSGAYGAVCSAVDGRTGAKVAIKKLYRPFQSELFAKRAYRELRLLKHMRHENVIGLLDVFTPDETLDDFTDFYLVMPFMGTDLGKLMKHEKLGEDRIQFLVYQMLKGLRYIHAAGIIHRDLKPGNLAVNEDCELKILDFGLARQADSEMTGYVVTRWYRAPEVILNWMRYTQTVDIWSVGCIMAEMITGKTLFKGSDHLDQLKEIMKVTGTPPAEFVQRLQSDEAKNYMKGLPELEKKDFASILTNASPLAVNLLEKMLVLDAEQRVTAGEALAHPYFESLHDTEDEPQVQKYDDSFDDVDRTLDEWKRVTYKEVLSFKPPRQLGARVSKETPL
In short: as §1

HASPIN = HASPIN (Homo sapiens, UniProt Q8TF76); settings: read-out: residual enzyme activity
In short: as §1

STK21/CIT = STK21/CIT (Homo sapiens, UniProt O14578); settings: read-out: residual enzyme activity
In short: as §1

CAMK2D = CAMK2D (Homo sapiens, UniProt Q13557); settings: read-out: residual enzyme activity
In short: as §1

LCK = LCK (Homo sapiens, UniProt P06239); settings: read-out: residual enzyme activity
In short: as §1

TRKC = TRKC (Homo sapiens, UniProt Q16288); settings: read-out: residual enzyme activity
Chain of TRKC (Q16288 32-839, species assumed): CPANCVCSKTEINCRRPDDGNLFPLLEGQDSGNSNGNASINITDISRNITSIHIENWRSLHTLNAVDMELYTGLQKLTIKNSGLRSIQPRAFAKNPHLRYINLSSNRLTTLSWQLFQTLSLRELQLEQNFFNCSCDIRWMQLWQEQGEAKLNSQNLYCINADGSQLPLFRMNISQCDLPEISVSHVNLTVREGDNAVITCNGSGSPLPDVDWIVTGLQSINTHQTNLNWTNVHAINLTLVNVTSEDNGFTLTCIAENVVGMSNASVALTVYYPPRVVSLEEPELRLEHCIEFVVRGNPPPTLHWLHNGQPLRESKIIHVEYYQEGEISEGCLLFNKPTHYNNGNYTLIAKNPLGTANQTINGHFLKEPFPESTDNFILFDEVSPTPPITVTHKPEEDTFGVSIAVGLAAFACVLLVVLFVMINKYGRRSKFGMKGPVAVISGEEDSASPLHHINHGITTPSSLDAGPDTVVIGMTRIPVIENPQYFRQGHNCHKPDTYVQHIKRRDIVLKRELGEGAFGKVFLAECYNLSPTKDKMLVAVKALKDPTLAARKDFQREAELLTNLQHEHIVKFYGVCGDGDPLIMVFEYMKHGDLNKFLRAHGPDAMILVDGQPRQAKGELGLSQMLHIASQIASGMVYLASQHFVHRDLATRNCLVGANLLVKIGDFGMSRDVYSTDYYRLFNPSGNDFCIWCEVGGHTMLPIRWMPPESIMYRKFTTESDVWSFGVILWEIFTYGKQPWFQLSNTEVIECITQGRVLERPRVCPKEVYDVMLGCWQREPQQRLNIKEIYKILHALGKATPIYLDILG
In short: as §1

DDR2 = DDR2 (Homo sapiens, UniProt Q16832); settings: DDR2, 1 µM; read-out: residual enzyme activity
In short: as §1

PAK3 = PAK3 (Homo sapiens, UniProt O75914); settings: PAK3, 1 µM; read-out: residual enzyme activity
In short: as §1

PYK2 = PYK2 (Homo sapiens, UniProt Q14289); settings: PYK2, 1 µM; read-out: residual enzyme activity
Chain of PYK2 (Q14289 whole entry, species assumed): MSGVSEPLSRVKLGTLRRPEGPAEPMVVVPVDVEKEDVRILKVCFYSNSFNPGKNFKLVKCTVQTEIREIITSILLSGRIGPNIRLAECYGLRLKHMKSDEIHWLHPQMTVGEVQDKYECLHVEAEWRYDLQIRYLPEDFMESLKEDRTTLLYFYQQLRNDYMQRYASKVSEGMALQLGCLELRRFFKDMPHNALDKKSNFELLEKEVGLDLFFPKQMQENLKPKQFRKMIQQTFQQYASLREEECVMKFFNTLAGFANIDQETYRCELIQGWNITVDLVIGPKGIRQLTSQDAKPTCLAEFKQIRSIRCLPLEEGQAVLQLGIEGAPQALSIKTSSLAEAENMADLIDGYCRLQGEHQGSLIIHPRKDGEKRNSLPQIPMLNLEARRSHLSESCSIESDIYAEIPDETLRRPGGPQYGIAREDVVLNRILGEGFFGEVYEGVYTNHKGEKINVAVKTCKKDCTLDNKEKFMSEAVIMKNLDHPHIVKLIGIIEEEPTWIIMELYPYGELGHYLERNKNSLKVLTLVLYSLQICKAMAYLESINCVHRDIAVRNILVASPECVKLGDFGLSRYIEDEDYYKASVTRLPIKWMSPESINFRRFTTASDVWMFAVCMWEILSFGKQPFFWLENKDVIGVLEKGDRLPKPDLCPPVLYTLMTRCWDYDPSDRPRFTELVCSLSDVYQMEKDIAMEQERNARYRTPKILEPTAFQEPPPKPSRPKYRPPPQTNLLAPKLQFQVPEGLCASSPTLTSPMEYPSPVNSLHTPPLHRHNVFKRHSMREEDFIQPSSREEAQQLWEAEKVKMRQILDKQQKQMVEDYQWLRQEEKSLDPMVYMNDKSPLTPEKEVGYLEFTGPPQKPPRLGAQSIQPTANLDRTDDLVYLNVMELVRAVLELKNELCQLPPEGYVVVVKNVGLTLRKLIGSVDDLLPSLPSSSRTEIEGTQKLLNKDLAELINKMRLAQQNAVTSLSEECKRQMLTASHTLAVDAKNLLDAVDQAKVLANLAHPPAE
In short: as §1

PHKG1 = PHKG1 (Homo sapiens, UniProt Q16816); settings: read-out: residual enzyme activity
In short: as §1

HIPK1 = HIPK1 (Homo sapiens, UniProt Q86Z02); settings: HIPK1, 1 µM; read-out: residual enzyme activity
Chain of HIPK1 (Q86Z02 whole entry, species assumed): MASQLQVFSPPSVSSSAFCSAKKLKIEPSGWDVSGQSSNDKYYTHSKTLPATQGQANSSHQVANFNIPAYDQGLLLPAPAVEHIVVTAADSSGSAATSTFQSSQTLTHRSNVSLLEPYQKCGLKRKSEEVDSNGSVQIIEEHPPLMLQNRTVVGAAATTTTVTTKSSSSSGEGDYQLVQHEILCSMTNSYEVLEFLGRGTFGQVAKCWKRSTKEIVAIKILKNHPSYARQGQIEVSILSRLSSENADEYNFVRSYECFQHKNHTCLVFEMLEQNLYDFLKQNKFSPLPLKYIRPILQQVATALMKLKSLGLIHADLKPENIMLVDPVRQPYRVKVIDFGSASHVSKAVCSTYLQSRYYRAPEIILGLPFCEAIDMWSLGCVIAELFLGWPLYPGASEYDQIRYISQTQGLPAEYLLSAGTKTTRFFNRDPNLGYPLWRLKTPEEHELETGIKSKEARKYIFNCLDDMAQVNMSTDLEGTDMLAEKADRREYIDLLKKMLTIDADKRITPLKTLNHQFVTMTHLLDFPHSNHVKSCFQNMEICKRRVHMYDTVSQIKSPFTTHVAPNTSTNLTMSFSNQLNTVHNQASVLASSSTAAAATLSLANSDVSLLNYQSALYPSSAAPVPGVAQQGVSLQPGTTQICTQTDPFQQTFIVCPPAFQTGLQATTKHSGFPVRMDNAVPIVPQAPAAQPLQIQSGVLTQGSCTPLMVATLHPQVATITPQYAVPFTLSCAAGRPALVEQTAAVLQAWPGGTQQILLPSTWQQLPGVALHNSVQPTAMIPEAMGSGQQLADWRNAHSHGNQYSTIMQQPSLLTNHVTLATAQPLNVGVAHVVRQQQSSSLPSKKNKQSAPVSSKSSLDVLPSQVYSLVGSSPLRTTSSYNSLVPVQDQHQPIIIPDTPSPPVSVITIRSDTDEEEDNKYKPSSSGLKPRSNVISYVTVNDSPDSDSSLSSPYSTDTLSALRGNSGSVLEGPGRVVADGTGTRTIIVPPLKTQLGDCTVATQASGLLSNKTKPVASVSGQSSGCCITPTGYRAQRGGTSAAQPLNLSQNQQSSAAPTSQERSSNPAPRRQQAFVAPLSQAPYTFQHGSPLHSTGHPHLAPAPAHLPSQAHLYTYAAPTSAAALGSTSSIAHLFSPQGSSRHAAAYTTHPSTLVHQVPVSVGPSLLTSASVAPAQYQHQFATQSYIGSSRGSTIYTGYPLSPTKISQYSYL
In short: as §1

PAK2 = PAK2 (Homo sapiens, UniProt Q13177); settings: PAK2, 1 µM; read-out: residual enzyme activity
In short: as §1

DDR1 = DDR1 (Homo sapiens, UniProt Q08345); settings: DDR1, 1 µM; read-out: residual enzyme activity
Chain of DDR1 (Q08345 19-913, species assumed): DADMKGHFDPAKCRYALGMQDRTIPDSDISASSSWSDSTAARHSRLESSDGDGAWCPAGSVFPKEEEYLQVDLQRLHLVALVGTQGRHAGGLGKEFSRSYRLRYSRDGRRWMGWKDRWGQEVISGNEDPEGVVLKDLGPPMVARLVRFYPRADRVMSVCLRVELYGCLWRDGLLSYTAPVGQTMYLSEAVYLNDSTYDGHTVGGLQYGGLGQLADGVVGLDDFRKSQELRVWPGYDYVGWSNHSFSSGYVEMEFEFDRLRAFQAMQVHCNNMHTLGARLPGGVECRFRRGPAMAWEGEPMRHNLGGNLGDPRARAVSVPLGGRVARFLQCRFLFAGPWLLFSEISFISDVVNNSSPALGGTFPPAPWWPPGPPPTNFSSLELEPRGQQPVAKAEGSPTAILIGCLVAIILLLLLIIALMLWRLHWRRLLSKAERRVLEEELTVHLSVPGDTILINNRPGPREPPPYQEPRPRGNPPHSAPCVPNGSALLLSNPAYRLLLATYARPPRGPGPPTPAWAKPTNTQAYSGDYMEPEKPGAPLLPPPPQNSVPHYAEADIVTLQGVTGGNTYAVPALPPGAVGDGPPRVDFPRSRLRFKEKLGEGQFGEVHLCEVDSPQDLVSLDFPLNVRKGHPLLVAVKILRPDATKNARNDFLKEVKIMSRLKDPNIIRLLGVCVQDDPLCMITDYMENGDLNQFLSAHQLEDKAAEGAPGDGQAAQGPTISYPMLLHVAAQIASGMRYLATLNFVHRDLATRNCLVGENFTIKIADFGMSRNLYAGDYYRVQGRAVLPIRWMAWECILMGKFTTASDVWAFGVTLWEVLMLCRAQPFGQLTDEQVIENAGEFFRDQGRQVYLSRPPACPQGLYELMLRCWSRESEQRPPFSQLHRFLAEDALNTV
In short: as §1

BTK = BTK (Homo sapiens, UniProt Q06187); settings: read-out: residual enzyme activity
In short: as §1

C-MER = C-MER (Homo sapiens, UniProt Q12866); settings: read-out: residual enzyme activity
In short: as §1

CAMK4 = CAMK4 (Homo sapiens, UniProt Q16566); settings: CAMK4, 1 µM; read-out: residual enzyme activity
In short: as §1

ERK7/MAPK15 = ERK7/MAPK15 (Homo sapiens, UniProt Q8TD08); settings: ERK7/MAPK15, 1 µM; read-out: residual enzyme activity
In short: as §1

CDK4/CYCLIN D3 = CDK4/CYCLIN D3 (Homo sapiens, UniProt P11802); settings: CDK4/cyclin D3, 1 µM; read-out: residual enzyme activity
In short: as §1

CDK9/CYCLIN T2 = CDK9/CYCLIN T2 (Homo sapiens, UniProt P50750); settings: CDK9/cyclin T2, 1 µM; read-out: residual enzyme activity
In short: as §1

JAK1 = JAK1 (Homo sapiens, UniProt P23458); settings: JAK1, 1 µM; read-out: residual enzyme activity
In short: as §1

SMILES | remaining activity at 1 µM (MEKK6) [%] | remaining activity at 1 µM (MSSK1/STK23) [%] | remaining activity at 1 µM (PKCTHETA) [%] | remaining activity at 1 µM (CDK2/CYCLIN E2) [%] | remaining activity at 1 µM (IRAK4) [%] | remaining activity at 1 µM (HGK/MAP4K4) [%] | remaining activity at 1 µM (NEK4) [%] | remaining activity at 1 µM (GRK4) [%] | remaining activity at 1 µM (EPHA6) [%] | remaining activity at 1 µM (DMPK) [%] | remaining activity at 1 µM (MUSK) [%] | remaining activity at 1 µM (ROCK2) [%] | remaining activity at 1 µM (JAK2) [%] | remaining activity at 1 µM (FER) [%] | remaining activity at 1 µM (HASPIN) [%] | remaining activity at 1 µM (STK21/CIT) [%] | remaining activity at 1 µM (LCK) [%] | remaining activity at 1 µM (TRKC) [%] | remaining activity at 1 µM (DDR2) [%] | remaining activity at 1 µM (PAK3) [%] | further results
Cc1ccc(Nc2ncc3c(n2)C2(CC2)C(=O)N(c2cc(NC(=O)c4cccc(C(F)(F)F)c4)ccc2C)C3)cn1 [Compound 51, N-(4-methyl-3-(2'-((6-methylpyridin-3-yl)amino)-7'-oxo-5'H-spiro[cyclopropane-1,8'-pyrido[4,3-d]pyrimidine]-6'(7'H)-yl)phenyl)-3-(trifluoromethyl)benzamide] | > 40 | > 40 | > 40 | > 40 | > 40 | ≤ 40 | ≤ 40 | > 40 | ≤ 40 | > 40 | ≤ 40 | > 40 | ≤ 40 | ≤ 40 | > 40 | > 40 | ≤ 40 | ≤ 40 | ≤ 40 | > 40 | remaining activity at 1 µM (P38G; P38g): > 40%; remaining activity at 1 µM (CAMK2D; CAMK2d): > 40%; remaining activity at 1 µM (PYK2): ≤ 40%; remaining activity at 1 µM (PHKG1; PHKgl, 1 µM): > 40%; remaining activity at 1 µM (HIPK1): > 40%; remaining activity at 1 µM (PAK2): > 40%; remaining activity at 1 µM (DDR1): ≤ 40%; remaining activity at 1 µM (BTK): ≤ 40%; remaining activity at 1 µM (C-MER; c-MER): > 40%; remaining activity at 1 µM (CAMK4): > 40%; remaining activity at 1 µM (ERK7/MAPK15): > 40%; remaining activity at 1 µM (CDK4/CYCLIN D3): > 40%; remaining activity at 1 µM (CDK9/CYCLIN T2): > 40%; remaining activity at 1 µM (JAK1): ≤ 40%
Cc1cn(-c2cc(C(=O)Nc3ccc(C)c(N4Cc5cnc(NC6CC6)nc5C5(CC5)C4=O)c3)cc(C(F)(F)F)c2)cn1 [Compound 8, N-(3-(2'-(cyclopropylamino)-7'-oxo-5'H-spiro[cyclopropane-1,8'-pyrido[4,3-d]pyrimidine]-6'(7'H)-yl)-4-methylphenyl)-3-(4-methyl-1H-imidazol-1-yl)-5-(trifluoromethyl)benzamide] | > 40 | > 40 | > 40 | > 40 | > 40 | ≤ 40 | ≤ 40 | > 40 | ≤ 40 | > 40 | ≤ 40 | > 40 | ≤ 40 | ≤ 40 | > 40 | > 40 | ≤ 40 | ≤ 40 | ≤ 40 | > 40 | remaining activity at 1 µM (P38G; P38G): > 40%; remaining activity at 1 µM (CAMK2D; CAMK2D): > 40%; remaining activity at 1 µM (PYK2): ≤ 40%; remaining activity at 1 µM (PHKG1; PHKG1, 1 µM): > 40%; remaining activity at 1 µM (HIPK1): > 40%; remaining activity at 1 µM (PAK2): > 40%; remaining activity at 1 µM (DDR1): ≤ 40%; remaining activity at 1 µM (BTK): ≤ 40%; remaining activity at 1 µM (C-MER; C-MER): > 40%; remaining activity at 1 µM (CAMK4): > 40%; remaining activity at 1 µM (ERK7/MAPK15): > 40%; remaining activity at 1 µM (CDK4/CYCLIN D3): > 40%; remaining activity at 1 µM (CDK9/CYCLIN T2): > 40%; remaining activity at 1 µM (JAK1): ≤ 40%
